Assay results as given in article PMC11203957, “Naphthoquinone-Quinolone Hybrids with Antitumor Effects on Breast Cancer Cell Lines—From the Synthesis to 3D-Cell Culture Effects” (International Journal of Molecular Sciences, 2024).

How the values were obtained:
[1] = tested on: human gastric cancer cells (MKN-74); parameters: method as in PMID 23651559, PMID 25457491; conditions: cited from earlier work
[2] = tested on: colorectal cancer cells (HCT-15); parameters: method as in PMID 23651559, PMID 25457491; conditions: cited from earlier work
[3] = tested on: MKN-74 cocultured with stromal cells Hs738; parameters: method as in PMID 23632919; conditions: coculture with stromal cells; cited from earlier work
[4] = tested on: HCT-15 cocultured with stromal cells CCd-18Co; parameters: method as in PMID 23632919; conditions: coculture with stromal cells; cited from earlier work
[5] = tested on: MCF-7 human breast cancer cells; parameters: method as in PMID 33039723; conditions: cited from earlier work
[6] = tested on: MCF-7; parameters: method as in PMID 30129412; conditions: cited from earlier work
[7] = tested on: MDA-MB-231; parameters: method as in PMID 30129412; conditions: cited from earlier work
[8] = tested on: 4T1; parameters: method as in PMID 30129412; conditions: cited from earlier work
[9] = tested on: non-cancerous cell line MCF10A; parameters: method as in PMID 30129412; conditions: cited from earlier work
[10] = tested on: MCF-7; assay: MTT cell viability assay, MCF-7 (2D culture); assay type: cell-based, human; conditions: for IC50: Homo sapiens, MCF7, MTT, 24 h treatment, 2D culture, read-out: IC50 ± SEM MCF-7; for SI IC50 MCF10A/IC50 MCF-7: selectivity index
Procedure: (§1) Our first approach to assessing the anticancer activity of the novel 1,4-naphthoquinone/4-quinolone conjugates 11a–f on breast cancer cells involved comparing their effects in the MTT cell viability assay to determine the half-maximal inhibitory concentration (IC50) in the 2D cell culture model. Doxorubicin and 1,4-naphthoquinone were used as controls. Concentration-response curves were obtained with the conjugates at concentrations ranging from 0 to 200 µM. […] This observation aligns with the structural characteristics of this derivative, which features the largest alkyl substituent at position R^1.
(§2) The IC50 values were calculated using GraphPad Prism v. 8.0.1, and the selectivity index was estimated as the ratio between the IC50 value of MCF10A/IC50 value of MDA-MB-231 or MCF-7 [33], for each compound.

[11] = tested on: MDA-MB-231; assay: MTT cell viability assay, MDA-MB-231 (2D culture); assay type: cell-based, human; conditions: for IC50: Homo sapiens, MDA-MB-231, MTT, 24 h treatment, 2D culture, read-out: IC50 ± SEM MDA-MB-231; for SI IC50 MCF10A/ IC50 MDA-MB-231: selectivity index
Procedure: as §1, §2

[12] = tested on: MCF-7 cells; assay: Annexin V/PI apoptosis assay, MCF-7; assay type: cell-based, human; conditions: 50 µM
Procedure: (§3) We investigated apoptosis induction through the annexin V/PI protocol, as described in Section 3. Doxorubicin, 1,4-naphthoquinone, and cisplatin were used as controls. […] For MDA-MB-231 cells (Figure 5B), the effects observed were more prominent at the concentrations tested.
(§4) For the apoptosis assay, the manufacturer’s instructions were followed (Dead Cell Apoptosis Kit with Annexin V for Flow Cytometry, Thermo Fisher Scientific, MA, USA). The cells were analyzed in a Countess II FL cell counter (Thermo Fisher Scientific, Waltham, MA, USA).
(§5) Figure 5 Naphthoquinone-quinolone hybrids induce apoptosis in MCF-7 (A) and MDA-MB-231 (B) cells at different levels.

[13] = tested on: MDA-MB-231 cells; assay: Clonogenic assay, MDA-MB-231; assay type: cell-based, human; conditions: 25 µM, 24 h treatment, about 14 days growth
Text: The clonogenic assay is an effective tool for investigating individual cells’ ability to form colonies. Tumor cells with the ability to generate an expanding family of descendants are clonogenic. Therefore, a clonogenic assay is a simple method to verify one of the important characteristics of cancer cells, which is the ability to detach from the site of origin and to form metastases in other locations. […] For instance, 90–99% of the tumor cells in FaDU tumors, a type of human squamous cell carcinoma observed in nude mice, are non-clonogenic. To achieve the main goal of cancer treatment, which is tumor eradication, it is necessary to inactivate all clonogenic cells through either cell killing or the induction of a permanent state of dormancy, thereby eliminating their clonogenic capacity. The assessment of the potential of a drug to achieve a curative outcome, i.e., effectively neutralizing clonogenic tumor cells, requires the utilization of experimental endpoints that accurately reflect the response of clonogenic cells. Clonogenic endpoints hold particular significance when novel anticancer agents are incorporated into curative therapeutic regimens, such as in combination with radiotherapy or chemotherapy. Thus, clonogenic assays were conducted for compounds 11a–f and 1,4-naphthoquinone.
Figure 6 The inhibition of colony formation by compounds 11a–f using MCF-7 (A,C) and MDA-MB-231 (B,D) cell lines. Cells were treated with derivatives 11a–f at 25 µM for 24 h. Subsequently, 400 cells were plated on 6-well plates for approximately 14 days. Then, cells were stained with crystal violet dye to visualize the colonies formed.

[14] = tested on: MCF-7 spheroids; assay: 3D-cell culture (spheroids), morphology and acid phosphatase viability, MCF-7; assay type: cell-based, human; conditions: 25 µM, 48 h
Text: 3D-cell cultures display features that resemble in vivo tumors: due to their tridimensional structure, cells are not provided with the same amounts of oxygen and nutrients in the center as on the surface, resulting in a gradient that leads to the formation of a necrotic core, similar to the in vivo tumor environment. In the 3D-cell culture model used here, spheroids are formed due to low interaction with the microplate bottom, promoted by its coating with agarose, and strong cell-to-cell interactions in MCF-7 cells, generating a finely compact and homogeneous spheroid. For MDA-MB-231 cells, the addition of collagen I is an extra stimulus necessary for spheroid stabilization. Spheroids were prepared and grown for 48 h and then treated with the compounds at 25 µM. After 48 h, morphological changes were observed, and their viabilities were measured as described in Section 3. The exposure to the compounds for 48 h promoted visible changes in the morphologies of spheroids for both cell lines when compared to the controls (Figure 8). […] While it is more complicated to imply changes in the proliferative (surface) region of the MDA-MB-231 spheroids (Figure 8B), they are observed together with morphological changes after treatment, making them appear more crumbly and lose their round shape. These findings are in line with the viability test, which detected a reduction in the viabilities for all of them, which is significant compared to the control (p < 0.05), except for 11a in MDA-MB-231 spheroids (Figure 8C,D). We should also highlight that the concentrations necessary for an effect on spheroids are expected to be higher when compared to 2D-cell culture models. Here, we observed changes using 25 µM of each compound, as performed in the other experiments.
The procedure was performed as described by Gong et al., with a few modifications. A total of 5000 cells per well were plated on 96-well plates with bottoms previously covered with 50 µL of a 1% agarose solution. The plates were then centrifuged at 300× g for 10 min. For MDA-MB-231 cells, collagen I from rat tail (Gibco) was added to a 3 µg/mL final concentration in the cell suspension. […] The cell spheroids/aggregates were treated with fresh medium added to the compounds and their viability was evaluated after 48 h. Spheroids were photographed with an inverted microscope Bel INV-100 (Bel Engineering, Monza, Italy) equipped with a digital camera.
To measure spheroids viability, this viability assay was performed following Friedrich et al.. The medium was removed from wells and spheroids were washed with PBS. Then, 100 µL of a solution containing 2 mg/mL p-nitrophenyl phosphate (PNPP), 0.1 M citric acid, and 0.1% (v/v) Triton X, pH 5.0 were added. […]

[15] = tested on: MDA-MB-231 spheroids; assay: 3D-cell culture (spheroids), morphology and acid phosphatase viability, MDA-MB-231; assay type: cell-based, human; conditions: 25 µM, vs control, p < 0.05
Text: 3D-cell cultures display features that resemble in vivo tumors: due to their tridimensional structure, cells are not provided with the same amounts of oxygen and nutrients in the center as on the surface, resulting in a gradient that leads to the formation of a necrotic core, similar to the in vivo tumor environment. In the 3D-cell culture model used here, spheroids are formed due to low interaction with the microplate bottom, promoted by its coating with agarose, and strong cell-to-cell interactions in MCF-7 cells, generating a finely compact and homogeneous spheroid. For MDA-MB-231 cells, the addition of collagen I is an extra stimulus necessary for spheroid stabilization. Spheroids were prepared and grown for 48 h and then treated with the compounds at 25 µM. After 48 h, morphological changes were observed, and their viabilities were measured as described in Section 3. […] These findings are in line with the viability test, which detected a reduction in the viabilities for all of them, which is significant compared to the control (p < 0.05), except for 11a in MDA-MB-231 spheroids (Figure 8C,D). […]
The procedure was performed as described by Gong et al., with a few modifications. […] The cell spheroids/aggregates were treated with fresh medium added to the compounds and their viability was evaluated after 48 h. […]

[16] = tested on: MCF10A; assay: MTT cell viability assay, non-tumor MCF10A; conditions: for IC50: Homo sapiens, MCF-10A, 24 h, read-out: IC50 ± SEM MCF10A
[17] = Solubility in the culture medium (inferred from MTT curves); assay type: physicochemical; conditions: concentrations >25 µM
Procedure: as §1

[18] = tested on: MDA-MB-231 cells; assay: Annexin V/PI apoptosis assay, MDA-MB-231; assay type: cell-based, human; conditions: 50 µM
Procedure: as §3, §4, §5

[19] = tested on: gastric cancer cells ACP03; parameters: method as in PMID 24858098; conditions: cited from earlier work
[20] = tested on: cervix adenocarcinoma (HeLa); parameters: method as in PMID 22406451; conditions: cited from earlier work
[21] = tested on: hepatocellular carcinoma (BEL7402); parameters: method as in PMID 22406451; conditions: cited from earlier work
[22] = tested on: refractory invasive prostate cancer cells (DU145); parameters: method as in PMID 18974148; conditions: cited from earlier work
[23] = tested on: tumor; parameters: method as in PMID 18974148; conditions: 2 mg/kg (body weight), three weeks of treatment; cited from earlier work
[24] = tested on: non-tumorigenic prostate epithelial cells (RWPE-1); conditions: cited from earlier work
[25] = low concentrations (<25 µM), effect plateaus above 25 µM

CSC(=NCn1c(C/C=C(\C)CCC=C(C)C)cc(=O)c2ccccc21)SC [Compound 4, intervenolin]
IC50 [1]: 7 µM
IC50 [2]: 3.7 µM
IC50 [3]: 0.4 µM
IC50 [4]: 0.5 µM

Cc1ccc(NC(=O)c2ccc(NC3=C(Cl)C(=O)c4ccccc4C3=O)cc2)nc1 [Compound 7]
cytotoxicity against MCF-7 [5]: high cytotoxicity

CCOC(=O)c1cn(CC)c2ccc(-n3cc(COC4=C(CC=C(C)C)C(=O)c5ccccc5C4=O)nn3)cc2c1=O [Compound 10]
activity against MCF-7 [6]: demonstrated activity
activity against MDA-MB-231 [7]: demonstrated activity
activity against 4T1 [8]: demonstrated activity
cytotoxicity against MCF10A [9]: no significant cytotoxicity

CCOC(=O)c1cn(CC)c2ccc(C3=CC(=O)c4ccccc4C3=O)cc2c1=O [Compound 11a, Ethyl 6-(1,4-dioxo-1,4-dihydronaphthalen-2-yl)-1-ethyl-4-oxo-1,4-dihydroquinoline-3-carboxylate]
IC50 [10]: 18.7 ± 1.1 µM
SI IC50 MCF10A/IC50 MCF-7 [10]: 0.57 ± 0.12
IC50 [11]: 9.16 ± 1 µM
SI IC50 MCF10A/ IC50 MDA-MB-231 [11]: 1.15 ± 0.15
early apoptosis induction (annexin V/PI), MCF-7 [12]: comparable
colony formation, MDA-MB-231 [13]: most effective
spheroid morphology, MCF-7 [14]: changes in the morphology
spheroid viability (acid phosphatase), MDA-MB-231 [15]: significant decrease was observed for all compounds, except for 11a
IC50 [16]: 10.6 ± 1.2 µM
cytotoxicity effect in MCF10A compared with doxorubicin ([16]; relative to doxorubicin): seven times lower

O=C1C=C(c2ccc3c(c2)c(=O)c(C(=O)O)cn3Cc2ccccc2)C(=O)c2ccccc21 [Compound 11e, 1-benzyl-6-(1,4-dioxo-1,4-dihydronaphthalen-2-yl)-4-oxo-1,4-dihydroquinoline-3-carboxylic acid]
anticancer activity in MTT concentration-response curve, MCF-7 [10, 25]: comparable to the most active derivatives at low concentrations
anticancer activity in MTT concentration-response curve, MDA-MB-231 [11, 25]: comparable to the most active derivatives at low concentrations
solubility in the medium [17]: low solubility
melting point: > 300 °C

COc1cccc2c1C(=O)c1c(O)c3c(c(O)c1C2=O)C[C@@](O)(C(=O)CO)C[C@@H]3O[C@H]1C[C@H](N)[C@H](O)[C@H](C)O1 [Doxorubicin, reference compound]
IC50 [10]: 14.2 ± 1.1 µM
SI IC50 MCF10A/IC50 MCF-7 [10]: 0.10 ± 0.09
IC50 [11]: 2.76 ± 1.2 µM
SI IC50 MCF10A/ IC50 MDA-MB-231 [11]: 0.54 ± 0.10
early apoptosis induction (annexin V/PI), MCF-7 [12]: shows early apoptosis but also shows late apoptosis/necrosis in a great proportion
apoptosis profile (annexin V/PI), MDA-MB-231 [18]: effects similar to those seen on MCF-7 cells
spheroid morphology, MCF-7 [14]: changes in the morphology
IC50 [19]: 0.274 µM
IC50 [20]: 21.1 ± 1.9 µM
IC50 [21]: 19.3 ± 1.2 µM
IC50 [16]: 1.49 ± 1.3 µM

CC1=CC(=O)c2c(O)cccc2C1=O [plumbagin]
apoptosis induction in DU145 [22]: selectively induces apoptosis
tumor reduction [23]: 90%
effect on RWPE-1 [24]: without affecting
